One may read the Ki as a measure of affinity in units of concentration, obtained from inhibition or displacement. One may read the IC50 as the concentration at which inhibition is half-maximal. Lower therefore signals inhibition by little substance. As usually defined, the MIC is the smallest concentration in the dilution series that meets the test's criterion for growth inhibition. Read a high MIC as a less susceptible organism.

This note sets out measurements from ChEMBL document CHEMBL1147978, “Small molecule inhibitors of a glycoside hydrolase attenuate inducible AmpC-mediated beta-lactam resistance” (J Biol Chem, 2007).

Converted amounts (≈) assume the structure as drawn.

Assay [1] deals with Protein O-GlcNAcase (Homo sapiens) (UniProt O60502). Kind of assay: Inhibition of human family 84 O-GLcNAcase.
Chain of Protein O-GlcNAcase (Homo sapiens) (O60502 whole entry, looked up): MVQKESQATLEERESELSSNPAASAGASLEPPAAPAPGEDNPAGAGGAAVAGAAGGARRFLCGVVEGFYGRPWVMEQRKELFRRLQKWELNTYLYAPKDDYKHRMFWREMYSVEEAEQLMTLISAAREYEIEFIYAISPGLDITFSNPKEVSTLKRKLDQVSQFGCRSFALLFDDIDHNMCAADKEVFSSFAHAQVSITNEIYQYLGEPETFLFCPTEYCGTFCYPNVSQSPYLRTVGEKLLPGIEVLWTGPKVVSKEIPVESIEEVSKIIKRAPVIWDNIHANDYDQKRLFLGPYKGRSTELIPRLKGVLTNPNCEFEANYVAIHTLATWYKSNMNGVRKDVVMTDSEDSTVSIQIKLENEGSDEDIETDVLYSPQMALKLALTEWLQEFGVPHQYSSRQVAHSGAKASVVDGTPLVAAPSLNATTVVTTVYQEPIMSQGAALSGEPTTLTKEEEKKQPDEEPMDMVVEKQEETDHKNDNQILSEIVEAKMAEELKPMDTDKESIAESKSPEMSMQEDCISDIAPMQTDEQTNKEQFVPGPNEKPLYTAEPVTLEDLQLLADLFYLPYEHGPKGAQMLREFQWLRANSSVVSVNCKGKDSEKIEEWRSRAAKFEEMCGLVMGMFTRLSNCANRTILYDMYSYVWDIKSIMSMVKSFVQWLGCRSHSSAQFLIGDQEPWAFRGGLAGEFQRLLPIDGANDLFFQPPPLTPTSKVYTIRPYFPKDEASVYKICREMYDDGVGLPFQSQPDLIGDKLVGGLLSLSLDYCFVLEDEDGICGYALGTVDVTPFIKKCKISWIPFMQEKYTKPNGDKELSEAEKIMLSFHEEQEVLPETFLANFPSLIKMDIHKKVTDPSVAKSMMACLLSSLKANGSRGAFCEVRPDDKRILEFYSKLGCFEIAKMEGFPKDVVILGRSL
For assay [2], the target named is T1, Beta-hexosaminidase (Vibrio cholerae serotype O1 (strain ATCC 39315 / El Tor Inaba N16961)) (UniProt Q9KU37).
T1 sequence (whole entry): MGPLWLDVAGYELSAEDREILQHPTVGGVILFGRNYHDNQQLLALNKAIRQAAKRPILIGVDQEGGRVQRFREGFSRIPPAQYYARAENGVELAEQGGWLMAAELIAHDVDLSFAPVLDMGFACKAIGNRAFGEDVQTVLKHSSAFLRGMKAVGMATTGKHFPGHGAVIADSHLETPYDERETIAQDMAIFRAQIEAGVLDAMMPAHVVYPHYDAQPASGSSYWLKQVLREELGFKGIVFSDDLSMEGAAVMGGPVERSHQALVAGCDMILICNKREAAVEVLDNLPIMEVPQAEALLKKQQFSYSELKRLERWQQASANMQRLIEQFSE
Kind of assay: Inhibition of Vibrio cholerae NagZ.

A short description of assay [3]: Inhibition of bovine family 20 beta-hexosaminidase. Also on record: species or system Bos taurus.
Assay [4] is described as follows: Ratio of human 84 O-GLcNAcase to Vibrio cholerae NagZ.
The species named for a further assay is Homo sapiens. Kind of assay: Inhibition of human family 20 beta-hexosaminidase.
Assay [5] in a line: Selectivity for Vibrio cholerae NagZ over human family 84 O-GLcNAcas.
Assay [6] in a line: Selectivity for Vibrio cholerae NagZ over human family 20 beta-hexosaminidase.
Assay [7] concerns Escherichia coli. Kind of assay: Antimicrobial activity against wild type EtbuPUG treated Escherichia coli transfected with pCF1 by serial dilution method. It counts as functional.
Assay [8] deals with Escherichia coli. Kind of assay: Antimicrobial activity against wild type Escherichia coli transfected with pCF1 by serial dilution method.
Assay [9] relates to Escherichia coli. Kind of assay: Antimicrobial activity against wild type Escherichia coli by serial dilution method. Type of assay: functional.
The test system of assay [10] is Escherichia coli. Kind of assay: Antimicrobial activity against ampD deficient Escherichia coli transfected with pCF1 in medium containing EtbuPUG by serial dilution method. Type of assay: functional.
In assay [11] the test system is Escherichia coli. Kind of assay: Antimicrobial activity against ampD deficient Escherichia coli transfected with pCF1 in medium containing EtbuPUG by agar diffusion assay. It counts as functional. On the technique in general: In agar diffusion tests the substance spreads into inoculated agar from a disc or well.
Assay [12] has as its system Escherichia coli. Kind of assay: Antimicrobial activity against wild type Escherichia coli transfected with pCF1 by agar diffusion assay. Type of assay: functional.
Assay [13] concerns Escherichia coli. Kind of assay: Antimicrobial activity against ampD deficient Escherichia coli transfected with pCF1 by agar diffusion assay. It counts as functional.
Assay [14] relates to Escherichia coli. Kind of assay: Antimicrobial activity against ampD deficient Escherichia coli transfected with pCF1 by serial dilution method. It counts as functional.
Assay [15] concerns Escherichia coli. Kind of assay: Antimicrobial activity against wild type Escherichia coli transfected with pCF1 in medium containing EtbuPUG by agar diffusion assay. It counts as functional.
In assay [16] the test system is Escherichia coli. Kind of assay: Antimicrobial activity against wild type Escherichia coli in medium containing EtbuPUG by serial dilution method. It counts as functional.
Assay [17] concerns Escherichia coli. Kind of assay: Antimicrobial activity against ampD deficient Escherichia coli in medium containing EtbuPUG by serial dilution method. It counts as functional.
For assay [18], the system named is Escherichia coli. Kind of assay: Antimicrobial activity against ampD deficient Escherichia coli by serial dilution method. It counts as functional.

`CC(=O)N[C@H]1c2nc(CC(=O)O)cn2[C@H](CO)[C@@H](O)[C@@H]1O` registered a Ki in [1] of 0.43 µM. In addition, the Kinact in assay [2] was 15 µM. For the same compound, in [3], the IC50 came to 0.0052 µM. In assay [4], the Selectivity ratio was found to be 0.03.
As to `CC(=O)N[C@H]1/C(=N/O)O[C@H](CO)[C@@H](O)[C@@H]1O`, in [1], the Ki amounted to 6.4 µM. In addition, the Kinact in assay [2] was 0.22 µM. Besides, the Selectivity ratio in [4] came out at 29.
`CC(=O)N[C@H]1/C(=N/OC(=O)Nc2ccccc2)O[C@H](CO)[C@@H](O)[C@@H]1O` displayed a Ki in the assay filed under Homo sapiens of 0.036 µM. In assay [2], this compound gave a Kinact of 0.048 µM.
On to `CC(C)C(=O)N[C@H]1/C(=N/OC(=O)Nc2ccccc2)O[C@H](CO)[C@@H](O)[C@@H]1O`, for which the Ki in [1] worked out at 9 µM; in the assay listed under Homo sapiens it was 20 µM. In assay [2], this compound yielded a Kinact of 0.51 µM. The Selectivity ratio in [4] was determined as 18.
For `CC(C)CC(=O)N[C@H]1/C(=N/OC(=O)Nc2ccccc2)O[C@H](CO)[C@@H](O)[C@@H]1O` the same measures were 190 µM, above 1200 µM, 15 µM and 13.
For `CCC(=O)N[C@H]1/C(=N/OC(=O)Nc2ccccc2)O[C@H](CO)[C@@H](O)[C@@H]1O` the same measures were 1.2 µM, 1.2 µM, 0.16 µM and 7.5.
On to `CCC(CC)C(=O)N[C@H]1/C(=N/OC(=O)Nc2ccccc2)O[C@H](CO)[C@@H](O)[C@@H]1O`, for which the inhibition constant Ki in [1] is 337 µM; in the assay filed under Homo sapiens, above 3000 µM. The Kinact in assay [2] was determined as 3.1 µM. Besides, the Selectivity ratio was found to be 100 in [5], 100 in assay [6] and 109 in assay [4].
`CCCC(=O)N[C@H]1/C(=N/OC(=O)Nc2ccccc2)O[C@H](CO)[C@@H](O)[C@@H]1O`: the Ki in assay [1] amounted to 40 µM; in the assay listed under Homo sapiens it was 26 µM. The compound further showed a Kinact in [2] of 0.26 µM.
For `CCCCC(=O)N[C@H]1/C(=N/OC(=O)Nc2ccccc2)O[C@H](CO)[C@@H](O)[C@@H]1O`, the Ki in [1] was found to be 40 µM; in the assay listed under Homo sapiens, 220 µM. In assay [2], this compound registered a Kinact of 0.33 µM. The Selectivity ratio in assay [4] was found to be 121.
On the same counts, the results for `CCCCCC(=O)N[C@H]1/C(=N/OC(=O)Nc2ccccc2)O[C@H](CO)[C@@H](O)[C@@H]1O` are 220 µM, above 900 µM, 6.5 µM and 33.
For the compound `CO/N=C(\C(=O)N[C@@H]1C(=O)N2C(C(=O)O)=C(COC(C)=O)CS[C@H]12)c1csc(N)n1` [CEFOTAXIME], the MIC in the assay with Escherichia coli [7] came to 16 µg/mL (≈ 35.1 µM); against Escherichia coli [8], 64 µg/mL (≈ 141 µM); in the assay with Escherichia coli [9] it was 1 µg/mL (≈ 2.2 µM); with Escherichia coli [10], 64 µg/mL (≈ 141 µM); against Escherichia coli [14], 128 µg/mL (≈ 281 µM); against Escherichia coli [16], 1 µg/mL (≈ 2.2 µM). The MIC with Escherichia coli [17] and with Escherichia coli [18] was below 2 µg/mL each time. Moreover, the “inhibition zone (IZ)” value came to 9 mm in the assay on Escherichia coli [11], 10.3 mm in the assay with Escherichia coli [12], 7.1 mm in the assay on Escherichia coli [13] and 12.9 mm with Escherichia coli [15].
Regarding `CO[C@@]1(NC(=O)Cc2cccs2)C(=O)N2C(C(=O)O)=C(COC(N)=O)CS[C@@H]21` [CEFOXITIN], the MIC was 32 µg/mL (≈ 74.9 µM) with Escherichia coli [7]; 64 µg/mL (≈ 150 µM) in the assay with Escherichia coli [8]; 1 µg/mL (≈ 2.34 µM) against Escherichia coli [9]; 256 µg/mL (≈ 599 µM) with Escherichia coli [10]; 512 µg/mL (≈ 1200 µM) in the assay with Escherichia coli [14]; 1 µg/mL (≈ 2.34 µM) against Escherichia coli [16]. For the same compound, the MIC against Escherichia coli [17] and with Escherichia coli [18] was 2 µg/mL (≈ 4.68 µM) each time. The “inhibition zone (IZ)” value is on record as 10.8 mm in the assay with Escherichia coli [11], 9.3 mm in the assay with Escherichia coli [12], 8.8 mm in the assay with Escherichia coli [13] and 10.9 mm in the assay with Escherichia coli [15].
On to `CC(C)(O/N=C(\C(=O)N[C@@H]1C(=O)N2C(C(=O)[O-])=C(C[n+]3ccccc3)CS[C@H]12)c1csc(N)n1)C(=O)O` [CEFTAZIDIME], for which the MIC against Escherichia coli [7] turned out to be 32 µg/mL (≈ 58.5 µM); against Escherichia coli [8] it was 64 µg/mL (≈ 117 µM); in the assay with Escherichia coli [9], 1 µg/mL (≈ 1.83 µM); against Escherichia coli [10], 64 µg/mL (≈ 117 µM); against Escherichia coli [14] it was 256 µg/mL (≈ 468 µM); against Escherichia coli [16], 1 µg/mL (≈ 1.83 µM). Besides, the MIC with Escherichia coli [17] and in the assay with Escherichia coli [18] was below 2 µg/mL in each case.
For `CO/N=C(\C(=O)N[C@@H]1C(=O)N2C(C(=O)O)=C(CSc3nc(=O)c(O)nn3C)CS[C@H]12)c1csc(N)n1` [CEFTRIAXONE], the MIC is 16 µg/mL (≈ 28.9 µM) in the assay on Escherichia coli [7]; 32 µg/mL (≈ 57.7 µM) in the assay with Escherichia coli [8]; below 1 µg/mL in the assay with Escherichia coli [9]; 32 µg/mL (≈ 57.7 µM) with Escherichia coli [10]; 128 µg/mL (≈ 231 µM) in the assay with Escherichia coli [14]; below 1 µg/mL in the assay with Escherichia coli [16]. The MIC against Escherichia coli [17] and against Escherichia coli [18] was below 2 µg/mL throughout.
